The record followed here is EP3722296B1, “DIHYDRONAPHTHYRIDINES AND RELATED COMPOUNDS USEFUL AS KINASE INHIBITORS FOR THE TREATMENT OF PROLIFERATIVE DISEASES” (Deciphera Pharmaceuticals, LLC, priority 2012, dated 2013).

The subject of assay [1] is Phospho-KIT (Tyr719). The experiment in a line: GIST430 KIT Western Blot. The format is cell-based. The settings on record: GIST430 cells, 4 hours, serum-free medium; read-out: pKIT suppression by western blot analysi GIST430. The method, then:
(§1) GIST48, GIST430, and GIST882 cells were obtained from J. Fletcher (Brigham and Women's Hospital, Boston, MA). GIST T1 cells were obtained from B. Rubin (Cleveland Clinic, Cleveland, OH) and Professor Takahiro Taguchi (Kochi Medical School, Nankoku, Kochi, Japan). […] GIST430 cells were grown in Ham's F10 medium supplemented with 15% characterized fetal bovine serum (Invitrogen, Carlsbad, CA), 30 mg/L bovine pituitary extract (BD Biosciences, San Jose, CA), 0.5% Mito+ serum extender (BD Biosciences, San Jose, CA), 1 unit/mL penicillin G, 1 µg/ml streptomycin, and 0.29 mg/mL L-glutamine at 37 °C, 5%CO2, 95% humidity. GIST T1 cells were grown in DMEM medium supplemented with 10% characterized fetal bovine serum (Invitrogen, Carlsbad, CA), 1 unit/mL penicillin G, 1 µg/ml streptomycin, and 0.29 mg/mL L-glutamine at 37 °C, 5% CO2, and 95% humidity.
(§2) One hundred fifty thousand cells were added per well in a 24-well tissue-culture treated plate. […] Medium was aspirated, cells were washed with PBS, and serum-free Ham's F10 medium was added. […] Cells were washed with PBS, then lysed. Cell lysates were separated by SDS-PAGE and transferred to PVDF. Phospho-KIT (Tyr719) was detected using an antibody from Cell Signaling Technology (Beverly, MA), ECL Plus detection reagent (GE Healthcare, Piscataway, NJ) and a Molecular Devices Storm 840 phosphorimager in fluorescence mode. Blots were stripped and probed for total KIT using an antibody from Santa Cruz Biotech (Santa Cruz, CA). IC50 values were calculated using Prism software (Graphpad, San Diego, CA).
For orientation: In western blotting, separated proteins are transferred to a membrane and probed.

Assay [2] relates to Phospho-KIT (Tyr719). The experiment in a line: GIST48 KIT Western Blot. The format is cell-based. The note with it: GIST48 cells, 4 hours, serum-free medium; read-out: pKIT suppression by western blot analysi GIST48. The method, then: as §1
as §2, with “Two” for “One”, “RPMI1640” for “Ham's F10”

The next assay has as its system GIST T1 cells. The assay is described as follows: GIST T1 Cell Proliferation Assay. The class given is cell-based. The note with it: Homo sapiens, GISTT1, 72 h, 68 hours + 4 hours resazurin. As to the method: GIST48, GIST430, and GIST882 cells were obtained from J. Fletcher (Brigham and Women's Hospital, Boston, MA). GIST T1 cells were obtained from B. Rubin (Cleveland Clinic, Cleveland, OH) and Professor Takahiro Taguchi (Kochi Medical School, Nankoku, Kochi, Japan). Briefly, GIST48 and GIST 882 cells were grown in RPMI 1640 medium supplemented with 15% characterized fetal bovine serum (Invitrogen, Carlsbad, CA), 1 unit/mL penicillin G, 1 µg/ml streptomycin, and 0.29 mg/mL L-glutamine at 37 °C, 5% CO2, and 95% humidity. GIST430 cells were grown in Ham's F10 medium supplemented with 15% characterized fetal bovine serum (Invitrogen, Carlsbad, CA), 30 mg/L bovine pituitary extract (BD Biosciences, San Jose, CA), 0.5% Mito+ serum extender (BD Biosciences, San Jose, CA), 1 unit/mL penicillin G, 1 µg/ml streptomycin, and 0.29 mg/mL L-glutamine at 37 °C, 5%CO2, 95% humidity. GIST T1 cells were grown in DMEM medium supplemented with 10% characterized fetal bovine serum (Invitrogen, Carlsbad, CA), 1 unit/mL penicillin G, 1 µg/ml streptomycin, and 0.29 mg/mL L-glutamine at 37 °C, 5% CO2, and 95% humidity.
A serial dilution of test compound was dispensed into a 384-well black clear bottom plate (Corning, Corning, NY). One thousand two-hundred fifty cells were added per well in 50 µL complete growth medium. Plates were incubated for 68 hours at 37 °C, 5% CO2, 95% humidity. At the end of the incubation period 10 µL of a 440 µM solution of resazurin (Sigma, St. Louis, MO) in PBS was added to each well and incubated for an additional 4 hours at 37 °C, 5% CO2, 95% humidity. Plates were read on a Synergy2 reader (Biotek, Winooski, VT) using an excitation of 540 nm and an emission of 600 nm.

In another assay the target is T1, c-KIT T670I kinase (Homo sapiens, UniProt P10721, T670I).
T1 construct: The construct contains residues T544-V976 of cKit; GST (N); TEV cleavage site (internal); purchased deCODE Biostructures
The assay is described as follows: c-KIT T670I kinase assay. The format is biochemical. The settings on record: enzymatic assay. In outline: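 Enzyme: GST-fused, N-terminally tagged cKit bearing T670I, with TEV cleavage site. Reaction started by mixing compound dilutions with reaction mix; activity read continuously over 5 h at 30 °C as loss of 340 nm absorbance from NADH consumption.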

Another assay has as its target T2, c-KIT V654A kinase (Homo sapiens, UniProt P10721, V654A).
T2 construct: residues T544-V976 with N-terminal GST fusion; purchased deCODE Biostructures
The experiment in a line: c-KIT V654A Kinase Assay. The format is biochemical. The settings on record: enzymatic assay, ATP 200 µM. An outline of the steps: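 Kinase activity tracked by coupled NADH consumption, monitored continuously at 340 nm over 6 h at 30 °C after serially diluted compound was mixed in to start inhibition. Enzyme used was a GST-fused, N-terminally tagged cKIT T544–V976 construct with a TEV cleavage site.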

For another assay, the target named is T3, c-KIT D816V kinase (Homo sapiens, UniProt P10721, D816V).
T3 construct: residues T544-V976 with N-terminal GST fusion; purchased deCODE Biostructures
The experiment in a line: c-KIT D816V kinase Assay. The class given is biochemical. The note with it: enzymatic assay, ATP 200 uM. An outline of the steps:
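Coupled assay in which NADH oxidation was tracked as decreasing absorbance at 340 nm, continuously for 5 hours at 30 °C after adding serially diluted compound. Enzyme: cKit residues T544-V976 with N-terminal tag, GST fusion and TEV cleavage site.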

A further assay addresses T4, c-KIT D816H kinase (Homo sapiens, UniProt P10721, D816H).
T4 construct: The construct contains residues T544-V976 of cKit; GST (N); TEV cleavage site (internal); purchased deCODE Biostructures
The assay is described as follows: c-KIT D816H Kinase Assay. The class given is biochemical. The note with it: enzymatic assay, ATP 200 µM. In outline: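 Mutant cKit enzyme, expressed as a GST-fusion construct carrying an N-terminal tag and TEV site, was mixed with serially diluted compound to start reactions. Activity tracked via NADH consumption, read continuously at 340 nm over 6 hours at 30 °C.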

A further assay deals with c-KIT kinase (Homo sapiens, UniProt P10721). The experiment in a line: c-KIT kinase Assay. On the set-up: cKIT residues T544-V976; GST (N); TEV cleavage site (internal); purchased deCODE Biostructures. The settings on record: enzymatic assay, ATP 200 µM; read-out: KIT (wt) IC50. The format is biochemical. In outline:
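This continuous spectrophotometric assay tracked c-KIT kinase turnover through NADH consumption at 340 nm, recorded for 2 hours at 30 °C. The enzyme construct from deCODE Biostructures carried an N-terminal tag, a GST-fusion sequence and a TEV cleavage site. Percent inhibition came from reaction rates over 0 to 1 h relative to a no-compound control, and IC50 values were derived with GraphPad Prism.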

Chain of c-KIT kinase (P10721 544-976): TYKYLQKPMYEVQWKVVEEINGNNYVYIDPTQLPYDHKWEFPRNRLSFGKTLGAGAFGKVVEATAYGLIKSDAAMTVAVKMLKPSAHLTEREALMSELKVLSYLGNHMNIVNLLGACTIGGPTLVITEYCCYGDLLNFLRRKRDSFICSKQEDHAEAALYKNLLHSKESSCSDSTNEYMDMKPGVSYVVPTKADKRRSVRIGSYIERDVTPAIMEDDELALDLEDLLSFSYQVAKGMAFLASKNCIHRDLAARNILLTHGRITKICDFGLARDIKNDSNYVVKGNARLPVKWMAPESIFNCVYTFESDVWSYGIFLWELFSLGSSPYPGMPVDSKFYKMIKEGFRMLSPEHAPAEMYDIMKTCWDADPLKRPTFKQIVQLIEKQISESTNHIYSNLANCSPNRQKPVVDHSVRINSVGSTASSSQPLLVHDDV
T2 sequence (P10721 544-976 V654A): as the sequence (P10721 544-976) above, with V111A counted along it
T1 sequence (P10721 544-976 T670I): as the sequence (P10721 544-976) above, with T127I counted along it
T3 sequence (P10721 544-976 D816V): as the sequence (P10721 544-976) above, with D273V counted along it
T4 sequence (P10721 544-976 D816H): as the sequence (P10721 544-976) above, with D273H counted along it

In the case of `CCn1c(=O)c(-c2cc(NC(=O)Nc3cccc(Cl)c3)c(F)cc2F)cc2cnc(NC)cc21` [Example 17, 1-(3-chlorophenyl)-3-(5-(1-ethyl-7-(methylamino)-2-oxo-1,2-dihydro-1,6-naphthyridin-3-yl)-2,4-difluorophenyl)urea], the IC50 in the assay on Phospho-KIT (Tyr719) [1] and in the assay on Phospho-KIT (Tyr719) [2] was 10 to 100 nM each time.

`CCn1c(=O)c(-c2cc(NC(=O)Nc3ccccc3)c(F)cc2Cl)cc2cnc(N)cc21` [Example 21, 1-(5-(7-amino-1-ethyl-2-oxo-1,2-dihydro-1,6-naphthyridin-3-yl)-4-chloro-2-fluorophenyl)-3-phenylurea]: the values for the IC50 in the assay with Phospho-KIT (Tyr719) [1], in the assay on GIST T1 cells and in the assay with Phospho-KIT (Tyr719) [2] were less than 10 nM, less than 10 nM and 10 to 100 nM, respectively.

Take `CCn1c(=O)c(-c2cc(NC(=O)Nc3ccccc3)c(F)cc2Cl)cc2cnc(NCCCN(C)C)cc21` [Example 30, 1-(4-chloro-5-(7-(3-(dimethylamino)propylamino)-1-ethyl-2-oxo-1,2-dihydro-1,6-naphthyridin-3-yl)-2-fluorophenyl)-3-phenylurea]: the IC50 in the assay on Phospho-KIT (Tyr719) [1] fell in the range of 10 to 100 nM; in the assay on Phospho-KIT (Tyr719) [2], 100 to 1000 nM.

Take `CNc1cc2c(cn1)cc(-c1cc(NC(=O)Nc3cccc(F)c3)c(F)cc1C)c(=O)n2C(C)C` [Example 41, 1-(2-fluoro-5-(1-isopropyl-7-(methylamino)-2-oxo-1,2-dihydro-1,6-naphthyridin-3-yl)-4-methylphenyl)-3-(3-fluorophenyl)urea]: the IC50 in the assay on Phospho-KIT (Tyr719) [1] was 10 to 100 nM; on c-KIT T670I kinase, more than 1000 nM; in the assay with Phospho-KIT (Tyr719) [2], 100 to 1000 nM; at c-KIT V654A kinase, 10 to 100 nM; on c-KIT D816V kinase it was 10 to 100 nM; on c-KIT D816H kinase it was less than 10 nM. On c-KIT kinase, the IC50 is less than 10 nM.

Take `CCn1c(=O)c(-c2cc(NC(=O)Nc3ccccc3)c(F)cc2Br)cc2cnc(NC(C)=O)cc21` [Example 53, 1-(5-(7-acetamido-1-ethyl-2-oxo-1,2-dihydro-1,6-naphthyridin-3-yl)-4-bromo-2-fluorophenyl)-3-phenylurea]: the IC50 with Phospho-KIT (Tyr719) [1] is less than 10 nM; in the assay with GIST T1 cells, less than 10 nM; with Phospho-KIT (Tyr719) [2], 100 to 1000 nM.

Turning to `CCn1c(=O)c(-c2cc(NC(=O)Nc3cc(F)cc(F)c3)c(F)cc2F)cc2cnc(NC)cc21` [Example 63, 1-(3,5-difluorophenyl)-3-(5-(1-ethyl-7-(methylamino)-2-oxo-1,2-dihydro-1,6-naphthyridin-3-yl)-2,4-difluorophenyl)urea], the IC50 is 10 to 100 nM in the assay on Phospho-KIT (Tyr719) [1]; 10 to 100 nM on c-KIT T670I kinase; less than 10 nM in the assay on GIST T1 cells; 100 to 1000 nM in the assay with Phospho-KIT (Tyr719) [2]; less than 10 nM at c-KIT V654A kinase; 10 to 100 nM at c-KIT D816V kinase. Moreover, the IC50 on c-KIT kinase is less than 10 nM.

With `CCn1c(=O)c(-c2cc(NC(=O)Nc3ccccc3)c(F)cc2F)cc2cnc(NC(C)=O)cc21` [Example 66, 1-(5-(7-acetamido-1-ethyl-2-oxo-1,2-dihydro-1,6-naphthyridin-3-yl)-2,4-difluorophenyl)-3-phenylurea], the values for the IC50 with Phospho-KIT (Tyr719) [1], in the assay with GIST T1 cells and in the assay on Phospho-KIT (Tyr719) [2] were 10 to 100 nM, less than 10 nM and 100 to 1000 nM, respectively.

As to `CCn1c(=O)c(-c2cc(NC(=O)Nc3cc(F)ccc3F)c(F)cc2Cl)cc2cnc(NC)cc21` [Example 68, 1-(4-chloro-5-(1-ethyl-7-(methylamino)-2-oxo-1,2-dihydro-1,6-naphthyridin-3-yl)-2-fluorophenyl)-3-(2,5-difluorophenyl)urea], the IC50 was 10 to 100 nM in the assay with Phospho-KIT (Tyr719) [1]; 10 to 100 nM on c-KIT T670I kinase; less than 10 nM in the assay on GIST T1 cells; 100 to 1000 nM in the assay with Phospho-KIT (Tyr719) [2]; 10 to 100 nM at c-KIT V654A kinase; 10 to 100 nM on c-KIT D816V kinase. Also, the IC50 on c-KIT kinase is less than 10 nM.

As for `CCn1c(=O)c(-c2cc(NC(=O)Nc3cccc(CN4CCN(C)CC4)c3)c(F)cc2Cl)cc2cnc(NC)cc21` [Example 79, 1-(4-chloro-5-(1-ethyl-7-(methylamino)-2-oxo-1,2-dihydro-1,6-naphthyridin-3-yl)-2-fluorophenyl)-3-(3-((4-methylpiperazin-1-yl)methyl)phenyl)urea], the IC50 is 10 to 100 nM in the assay on Phospho-KIT (Tyr719) [1], less than 10 nM in the assay with GIST T1 cells and 10 to 100 nM in the assay on Phospho-KIT (Tyr719) [2].

Turning to `CCn1c(=O)c(-c2cc(NC(=O)Nc3cc(F)cc(CN4CCN(C)CC4)c3)c(F)cc2Cl)cc2cnc(NC)cc21` [Example 88, 1-(4-chloro-5-(1-ethyl-7-(methylamino)-2-oxo-1,2-dihydro-1,6-naphthyridin-3-yl)-2-fluorophenyl)-3-(3-fluoro-5-((4-methylpiperazin-1-yl)methyl)phenyl)urea], the figures for the IC50 in the assay on Phospho-KIT (Tyr719) [1], in the assay on GIST T1 cells and in the assay with Phospho-KIT (Tyr719) [2] were 10 to 100 nM, less than 10 nM and 10 to 100 nM, respectively.

Turning to `CCn1c(=O)c(-c2cc(NC(=O)Nc3cc(F)cc(F)c3)c(F)cc2C)cc2cnc(NC(=O)N(C)C)cc21` [Example 108, 3-(3-(5-(3-(3,5-difluorophenyl)ureido)-4-fluoro-2-methylphenyl)-1-ethyl-2-oxo-1,2-dihydro-1,6-naphthyridin-7-yl)-1,1-dimethylurea], the IC50 in the assay on Phospho-KIT (Tyr719) [1] lay in the range of 10 to 100 nM; on c-KIT T670I kinase, 10 to 100 nM; with Phospho-KIT (Tyr719) [2], 100 to 1000 nM; at c-KIT V654A kinase it was 100 to 1000 nM; at c-KIT D816V kinase it was 10 to 100 nM; on c-KIT D816H kinase, 10 to 100 nM. Further, the IC50 on c-KIT kinase lay within 10 to 100 nM.
